From US9056886B2, “Guanosine-rich modified oligonucleotides and antiproliferative activity thereof” (APTABIO THERAPEUTICS INC., priority 2009, dated 2015)
[5FU] = 5-fluoro-uracil base (5-fluoro-2'-deoxyuridine)

Experiments:
[1] = tested on: MCF7-DX (Breast Cancer Cells), a drug-resistance cell line; assay: Cell apoptosis (XTT method) in MCF7-DX cells; type: cell-based
Procedure: [Worded in the source for another cell line; this cell line is reported under the same test.] (§1) Each oligonucleotide was diluted in 10 mM Tris-HCl (pH 7.4) to a final concentration of 100 μM. The diluted solution was placed at 94° C. for 5 minutes and then quickly placed them on ice and left therein for 5 minutes. The resultant was added with 2M KCl to a final concentration of 50 mM, left at 60° C. for 3 hours and then slowly cooled down to room temperature.
(§2) One day before the experiment, 190 μL of culture, wherein PC-3 cell line(prostate cancer cell) was suspended at a concentration of 10^3-10^4/mL, was inoculated respectively into each well of a 96 well plate. The next day, 10 μL of the oligonucleotide solution prepared in Example 1 was added and cultured for six days. Six days after the inoculation, cell apoptosis rate measured by means of XTT method [JBC 1999, 26369].
(§3) As a result, it was confirmed that the cell apoptosis rate of APT-2001, APT-2002 and APT-2003 (the novel modified oligonucleotides of the present invention), was 3-10 times higher than those of APT-4001 (positive control) and APT-4002 (negative control) as measured in terms of IC50 or IC90 (FIG. 2). […] In addition, the cell apoptotic activity of the oligonucleotides, prepared according to the present invention over the K562 CML (chronic myeloid leukemia), MV-4-11 AML (acute leukemia) cells, were also verified.

[2] = tested on: HCT116 (Rectal Cancer Cells); assay: Cell apoptosis (XTT method) in HCT116 cells; type: cell-based
Procedure: [Worded in the source for another cell line; this cell line is reported under the same test.] as §1, §2, §3

[3] = tested on: A498 (Kidney Cancer Cells); assay: Cell apoptosis (XTT method) in A498 cells; type: cell-based
[4] = tested on: PC-3 cell line (prostate cancer cell); assay: Cell apoptosis (XTT method) in PC-3 cells; type: cell-based; conditions: for IC50: PC3 (Prostate Cancer Cells), cultured six days, XTT
Procedure: as §1, §2

[5] = tested on: A549 (Non-small Cell Carcinoma Cells); assay: Cell apoptosis (XTT method) in A549 cells; type: cell-based
[6] = tested on: MCF7 (Breast Cancer Cells); assay: Cell apoptosis (XTT method) in MCF7 cells; type: cell-based
Procedure: [Worded in the source for another cell line; this cell line is reported under the same test.] as §1, §2, §3

mice = assay: Toxicity test in mice; type: in vivo; conditions: 1 g/kg administered, 10 mice/group, observed for the next 7 days
Procedure: Toxicity test was performed on the active ingredient of the present invention as follows.
Each of APT-2001, APT-2002 and APT-2003 was dissolved in dimethylsulfoxide (DMSO), diluted with water and then administered to mice (10 mice/group) in the amount of 1 g/kg.

Substance	IC50 [1] [µM]	IC50 [2] [µM]	IC50 [3] [µM]	IC50 [4] [µM]	IC50 [5] [µM]	IC50 [6] [µM]	cell apoptotic activity compared to APT-4001 (positive control) ([4]; even at a smaller amount than APT-4001, FIG. 3)	survival of mice (mice)
APT-4002: Negative control, TTTCCTCCTCCTCCTTCTCCTCCTCCTCC (SEQ. ID. NO. 49); thymidine, 2′-deoxycytidine (DNA, backbone not given here) [reference compound]	> 50	> 50	> 50	> 50	> 50	–	–	–
APT-2002: NNNGGTGGTGGTGGTTGTGGTGGTGGTGG (SEQ. ID. NO. 2); N=5-F-deoxyuridine, G=2-deoxy-guanosine, H=thymidine (DNA UUUGGTGGTGGTGGTTGTGGTGGTGGTGG; DNA, [5FU] at 1, 2, 3, backbone not given here)	0.6	2.1	< 0.1	2.6	5.2	8.9	superior cell apoptotic activity	all mice survived
